{"source": "patent US9073858B2", "about": "“Methods of targeted drug development” (priority 2010, dated 2015)", "key": {"EGFR": {"target": "T1, EGFR (Homo sapiens, UniProt P00533)", "T1 construct": "endogenous in cells; host or cells: A431 cells (ATCC CRL-1555)", "T1 sequence (P00533 25-1210)": "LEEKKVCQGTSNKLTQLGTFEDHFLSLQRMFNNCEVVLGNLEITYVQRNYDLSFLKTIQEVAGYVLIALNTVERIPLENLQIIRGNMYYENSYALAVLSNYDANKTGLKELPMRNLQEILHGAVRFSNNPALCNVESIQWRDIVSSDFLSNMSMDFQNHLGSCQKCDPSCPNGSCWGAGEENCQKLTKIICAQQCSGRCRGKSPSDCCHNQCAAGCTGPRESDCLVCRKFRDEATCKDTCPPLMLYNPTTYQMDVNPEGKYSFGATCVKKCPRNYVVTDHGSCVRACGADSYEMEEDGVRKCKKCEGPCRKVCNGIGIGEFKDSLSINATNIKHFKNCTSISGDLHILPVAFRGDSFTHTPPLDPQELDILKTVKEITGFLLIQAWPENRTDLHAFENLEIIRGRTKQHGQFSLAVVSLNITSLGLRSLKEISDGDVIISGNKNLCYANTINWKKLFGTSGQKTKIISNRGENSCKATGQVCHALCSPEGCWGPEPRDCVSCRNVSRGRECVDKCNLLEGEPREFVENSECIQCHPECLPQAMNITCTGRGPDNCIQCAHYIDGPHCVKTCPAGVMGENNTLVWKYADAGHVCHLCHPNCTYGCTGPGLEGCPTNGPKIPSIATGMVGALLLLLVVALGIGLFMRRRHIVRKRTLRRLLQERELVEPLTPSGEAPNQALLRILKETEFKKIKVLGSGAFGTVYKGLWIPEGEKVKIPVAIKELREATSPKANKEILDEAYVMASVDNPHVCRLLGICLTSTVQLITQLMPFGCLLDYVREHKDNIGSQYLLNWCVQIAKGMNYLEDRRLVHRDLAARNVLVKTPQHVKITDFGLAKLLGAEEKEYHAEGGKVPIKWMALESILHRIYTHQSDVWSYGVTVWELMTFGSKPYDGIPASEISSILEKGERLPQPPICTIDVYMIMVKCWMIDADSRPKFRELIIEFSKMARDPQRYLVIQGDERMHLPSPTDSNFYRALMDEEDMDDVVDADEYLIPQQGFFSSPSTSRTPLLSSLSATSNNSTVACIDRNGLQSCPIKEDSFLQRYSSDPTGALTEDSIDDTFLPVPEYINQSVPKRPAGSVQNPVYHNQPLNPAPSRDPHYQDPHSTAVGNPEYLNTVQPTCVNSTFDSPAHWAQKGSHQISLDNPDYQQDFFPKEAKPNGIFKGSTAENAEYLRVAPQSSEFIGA", "assay": "EGFR in-cell Western (ICW) screening protocol", "type": "cell-based", "parameters": "unit not given here", "settings": "initial screen", "procedure,_shortened": "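Serum-starved cells treated with compound 4 h at 37 °C, then stimulated with EGF (20 or 0 ng/ml solution added) in its continued presence. In-cell Western on fixed cells: phospho-EGFR (800 channel) normalised to total EGFR (700 channel), % inhibition calculated against EGF-stimulated and unstimulated no-compound wells.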"}, "[1]": {"test_system": "caspase 3,7 activity in A431 cells", "assay": "cells", "text": "As described below, the capsase 3,7 assay uses the Promega Caspase-Glo 3/7 assay kit (cat no. G8092).\nThe Caspase-Glo® 3/7 Assay is a luminescent assay that measures caspase-3 and −7 activities in purified enzyme preparations or cultures of adherent or suspension cells. The assay provides a proluminescent caspase-3/7 substrate, which contains the tetrapeptide sequence, DEVD. This substrate is cleaved to release aminoluciferin, a substrate of luciferase used in the production of light. The Caspase-Glo® 3/7 Reagent has been optimized for caspase activity, luciferase activity and cell lysis. The addition of the single Caspase-Glo® 3/7 Reagent in an “add-mix-measure” format results in cell lysis, followed by caspase cleavage of the substrate and generation of a “glow-type” luminescent signal. The Caspase-Glo® 3/7 Assay is designed for use with multiwell plate formats, making it ideal for automated high-throughput screening of caspase activity or apoptosis.\nStaurosporine was used as a positive control.\nFor the capsase 3,7 assay, cells were incubated for 5.5 hrs at 37° C., 5% CO2. The plate was removed from the incubator and equilibrated to room temperature. After 30 min, 25 μl Caspase 3/7 detection reagent (Promega Caspase-Glo 3/7 assay kit, cat no. G8092) was added to each well. The plate was covered with tin foil and shaken on a plate shaker at speed 4 for 3 min. The plate was then incubated for an additional 60 min at room temperature. Luminescence was detected using the PolarStar plate reader.\nAll statistical analyses were done using GraphPad Prism.\nThe assay was stopped after 6 hrs and the presence of caspase was measured using the Promega Caspase-Glo® 3/7 Assay."}, "[2]": {"settings": "Homo sapiens, A-431, read-out: Total Apoptosis (increase in caspase 3,7 activity as percentage of the maximal response)"}}, "data": [{"smiles": "Oc1c(C(Nc2ccccn2)c2ccc(C(F)(F)F)cc2)ccc2cccnc12", "note": "(centres unmarked) [compound 10460]", "values": [{"measurement": "ICW Screen", "setting": "EGFR", "result": 23.17}]}, {"smiles": "Cc1c(Cl)cnc(NC(c2cccc(Cl)c2Cl)c2ccc3cccnc3c2O)c1F", "note": "(centres unmarked) [AD4-13192]", "values": [{"measurement": "Emax at 8 µM", "setting": "[1]; [2]", "result": 29, "unit": "%"}, {"measurement": "Emax at 16 µM", "setting": "[1]; [2]", "result": 32, "unit": "%"}, {"measurement": "effect on Tarceva to increase caspase 3,7 activity", "setting": "[1]; Tarceva plus compound, A431 cells, 6 hrs", "result": "synergistic (greater-than-additive) effect"}, {"measurement": "Ability to Synergize with Tarceva", "setting": "[1]; caspase 3,7 activity, A431 cells", "result": "+++ (0.3-0.7 Synergism)"}]}]}
